Experimental data: PubChem BioAssay (NCI)
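Step 1: Grow cells in 96-well plates. Step 2: Expose to compound for 48 hours at 5 concentrations. Step 3: Interpolate endpoints linearly; if unreached, use highest concentration. The concentration for 50% growth inhibition is given as GI50. At the TGI there is no net growth.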

Key:
Assay in all cases: DTP human tumour cell line panel, 48 h
786-0 renal = tested on: 786-0 renal
A498 renal = tested on: A498 renal
A549 NSCLC = tested on: A549 NSCLC
ACHN renal = tested on: ACHN renal
BT-549 breast = tested on: BT-549 breast
CAKI-1 renal = tested on: CAKI-1 renal
CCRF-CEM leukemia = tested on: CCRF-CEM leukemia
COLO 205 colon = tested on: COLO 205 colon
DU-145 prostate = tested on: DU-145 prostate
EKVX NSCLC = tested on: EKVX NSCLC
HCC-2998 colon = tested on: HCC-2998 colon
HCT-116 colon = tested on: HCT-116 colon
HCT-15 colon = tested on: HCT-15 colon
HL-60(TB) leukemia = tested on: HL-60(TB) leukemia
HOP-62 NSCLC = tested on: HOP-62 NSCLC
HOP-92 NSCLC = tested on: HOP-92 NSCLC
HS 578T breast = tested on: HS 578T breast
HT29 colon = tested on: HT29 colon
IGROV1 ovarian = tested on: IGROV1 ovarian
K-562 leukemia = tested on: K-562 leukemia
KM12 colon = tested on: KM12 colon
LOX IMVI melanoma = tested on: LOX IMVI melanoma
M14 melanoma = tested on: M14 melanoma
MALME-3M melanoma = tested on: MALME-3M melanoma
MCF7 breast = tested on: MCF7 breast
MDA-MB-231 breast = tested on: MDA-MB-231 breast
MDA-MB-435 = tested on: MDA-MB-435
MOLT-4 leukemia = tested on: MOLT-4 leukemia
NCI-H226 lung = tested on: NCI-H226 lung
NCI-H23 lung = tested on: NCI-H23 lung
NCI-H460 lung = tested on: NCI-H460 lung
NCI-H522 lung = tested on: NCI-H522 lung
NCI/ADR-RES ovarian = tested on: NCI/ADR-RES ovarian
OVCAR-3 ovarian = tested on: OVCAR-3 ovarian
OVCAR-4 ovarian = tested on: OVCAR-4 ovarian
OVCAR-5 ovarian = tested on: OVCAR-5 ovarian
OVCAR-8 ovarian = tested on: OVCAR-8 ovarian
PC-3 prostate = tested on: PC-3 prostate
RPMI-8226 leukemia = tested on: RPMI-8226 leukemia
RXF 393 renal = tested on: RXF 393 renal
SF-268 CNS = tested on: SF-268 CNS
SF-295 CNS = tested on: SF-295 CNS
SF-539 CNS = tested on: SF-539 CNS
SK-MEL-2 melanoma = tested on: SK-MEL-2 melanoma
SK-MEL-28 melanoma = tested on: SK-MEL-28 melanoma
SK-MEL-5 melanoma = tested on: SK-MEL-5 melanoma
SK-OV-3 ovarian = tested on: SK-OV-3 ovarian
SN12C renal = tested on: SN12C renal
SNB-19 CNS = tested on: SNB-19 CNS
SNB-75 CNS = tested on: SNB-75 CNS
SR leukemia = tested on: SR leukemia
SW-620 colon = tested on: SW-620 colon
T-47D breast = tested on: T-47D breast
TK-10 renal = tested on: TK-10 renal
U251 CNS = tested on: U251 CNS
UACC-257 melanoma = tested on: UACC-257 melanoma
UACC-62 melanoma = tested on: UACC-62 melanoma
UO-31 renal = tested on: UO-31 renal

CC1(C)CC(OCCCC[P+](c2ccccc2)(c2ccccc2)c2ccccc2)CC(C)(C)N1O
GI50 (786-0 renal): 738 nM | TGI (786-0 renal): 2230 nM | GI50 (A498 renal): 644 nM | TGI (A498 renal): 3890 nM | GI50 (A549 NSCLC): 370 nM | TGI (A549 NSCLC): 11500 nM | GI50 (ACHN renal): 2390 nM | TGI (ACHN renal): 7280 nM | GI50 (BT-549 breast): 274 nM | TGI (BT-549 breast): 1040 nM | GI50 (CAKI-1 renal): 1190 nM | TGI (CAKI-1 renal): 4010 nM | GI50 (CCRF-CEM leukemia): 246 nM | TGI (CCRF-CEM leukemia): 1520 nM | GI50 (COLO 205 colon): 202 nM | TGI (COLO 205 colon): 402 nM | GI50 (DU-145 prostate): 409 nM | TGI (DU-145 prostate): 7750 nM | GI50 (EKVX NSCLC): 256 nM | TGI (EKVX NSCLC): 4370 nM | GI50 (HCC-2998 colon): 287 nM | TGI (HCC-2998 colon): 3190 nM | GI50 (HCT-116 colon): 238 nM | TGI (HCT-116 colon): 3610 nM | GI50 (HCT-15 colon): 2780 nM | TGI (HCT-15 colon): 9120 nM | GI50 (HL-60(TB) leukemia): 125 nM | TGI (HL-60(TB) leukemia): 421 nM | GI50 (HOP-62 NSCLC): 440 nM | TGI (HOP-62 NSCLC): 2100 nM | GI50 (HOP-92 NSCLC): 199 nM | TGI (HOP-92 NSCLC): 903 nM | GI50 (HS 578T breast): 229 nM | TGI (HS 578T breast): 1030 nM | GI50 (HT29 colon): 340 nM | TGI (HT29 colon): 7260 nM | GI50 (IGROV1 ovarian): 477 nM | TGI (IGROV1 ovarian): 2020 nM | GI50 (K-562 leukemia): 186 nM | TGI (K-562 leukemia): 18100 nM | GI50 (KM12 colon): 284 nM | TGI (KM12 colon): 966 nM | GI50 (LOX IMVI melanoma): 317 nM | TGI (LOX IMVI melanoma): 1250 nM | GI50 (M14 melanoma): 433 nM | TGI (M14 melanoma): 1900 nM | GI50 (MALME-3M melanoma): 317 nM | TGI (MALME-3M melanoma): 1070 nM | GI50 (MCF7 breast): 203 nM | TGI (MCF7 breast): 1200 nM | GI50 (MDA-MB-231 breast): 252 nM | TGI (MDA-MB-231 breast): 832 nM | GI50 (MDA-MB-435): 301 nM | TGI (MDA-MB-435): 1150 nM | GI50 (MOLT-4 leukemia): 340 nM | TGI (MOLT-4 leukemia): 4120 nM | GI50 (NCI-H226 lung): 472 nM | TGI (NCI-H226 lung): 10600 nM | GI50 (NCI-H23 lung): 254 nM | TGI (NCI-H23 lung): 1950 nM | GI50 (NCI-H460 lung): 282 nM | TGI (NCI-H460 lung): 1520 nM | GI50 (NCI-H522 lung): 275 nM | TGI (NCI-H522 lung): 1160 nM | GI50 (NCI/ADR-RES ovarian): 5560 nM | TGI (NCI/ADR-RES ovarian): 21500 nM | GI50 (OVCAR-3 ovarian): 241 nM | TGI (OVCAR-3 ovarian): 871 nM | GI50 (OVCAR-4 ovarian): 320 nM | TGI (OVCAR-4 ovarian): 4320 nM | GI50 (OVCAR-5 ovarian): 481 nM | TGI (OVCAR-5 ovarian): 8420 nM | GI50 (OVCAR-8 ovarian): 333 nM | TGI (OVCAR-8 ovarian): 2610 nM | GI50 (PC-3 prostate): 205 nM | TGI (PC-3 prostate): 4040 nM | GI50 (RPMI-8226 leukemia): 19 nM | TGI (RPMI-8226 leukemia): 133 nM | GI50 (RXF 393 renal): 518 nM | TGI (RXF 393 renal): 2080 nM | GI50 (SF-268 CNS): 412 nM | TGI (SF-268 CNS): 1880 nM | GI50 (SF-295 CNS): 337 nM | TGI (SF-295 CNS): 1390 nM | GI50 (SF-539 CNS): 327 nM | TGI (SF-539 CNS): 10200 nM | GI50 (SK-MEL-2 melanoma): 272 nM | TGI (SK-MEL-2 melanoma): 641 nM | GI50 (SK-MEL-28 melanoma): 628 nM | TGI (SK-MEL-28 melanoma): 2020 nM | GI50 (SK-MEL-5 melanoma): 163 nM | TGI (SK-MEL-5 melanoma): 358 nM | GI50 (SK-OV-3 ovarian): 302 nM | TGI (SK-OV-3 ovarian): 787 nM | GI50 (SN12C renal): 306 nM | TGI (SN12C renal): 1180 nM | GI50 (SNB-19 CNS): 317 nM | TGI (SNB-19 CNS): 2200 nM | GI50 (SNB-75 CNS): 331 nM | TGI (SNB-75 CNS): 3610 nM | GI50 (SR leukemia): 273 nM | TGI (SR leukemia): 1540 nM | GI50 (SW-620 colon): 337 nM | TGI (SW-620 colon): 4860 nM | GI50 (T-47D breast): 143 nM | TGI (T-47D breast): 1230 nM | GI50 (TK-10 renal): 361 nM | TGI (TK-10 renal): 2360 nM | GI50 (U251 CNS): 247 nM | TGI (U251 CNS): 1540 nM | GI50 (UACC-257 melanoma): 307 nM | TGI (UACC-257 melanoma): 977 nM | GI50 (UACC-62 melanoma): 392 nM | TGI (UACC-62 melanoma): 1640 nM | GI50 (UO-31 renal): 2660 nM | TGI (UO-31 renal): 8290 nM
